# Laboratory results published in patent US12521350B2, “Liquid crystalline dosage form for administering a statin” (CUBOPHARM PTY LTD, priority 2017, dated 2026).
# Key:
# human subjects = assay: Blood lipid changes after three single 5 mg rosuvastatin doses (Example 7); format: in vivo
# From the text: Each participant was given a single dose of medication on separate occasions after appropriate wash-out periods. […]
# [1] = In vitro release/permeation of rosuvastatin through porcine buccal mucosa in modified Ussing chambers; format: in vitro ADME, pigs
# Protocol: Porcine buccal mucosa was freshly isolated from pigs cheeks, mounted between modified Ussing chambers with a donor chamber, receptor chamber and the porcine buccal mucosa in between with a diffusional area of 0.64 cm^2, and incubated in Krebs bicarbonate Ringer buffer (KBR, pH 7.4) for 30 min. The mixture or tablet containing rosuvastatin (supplied by Aspen Pharmacare Australia) were applied to the porcine buccal mucosa (ie in the donor chamber) and, when necessary, Parafilm was applied to cover the formulation (ie for tablets and for mixtures containing glyceryl monooleate (GMO) and rosuvastatin). The Parafilm prevented the various formulations from detaching from the buccal mucosa. KBR buffer (1.5 mL) was then added to both the donor and receptor chambers, and receptor samples (200 μL) were collected from the receptor chamber at various time points up to 4-5 hours to determine the amount of rosuvastatin that passed through the porcine buccal mucosa to the receptor chamber. 200 μL of fresh KBR was dispensed into the receptor chamber after each collection (to ensure volume balance). Receptor chamber samples were provided to Aspen Pharmacare Australia for quantification of rosuvastatin by HPLC.
# Positive control was tested by making rosuvastatin solutions of 0.4 and 0.8 mg/1.5 ml KBR solution, equivalent to 1:[…] ODT's. […]
# [2] = 10 mg, after 6 weeks therapy; cited from earlier work
# [3] = Mean of 3 subjects, three single 5 mg doses
# [4] = Person (buccal dosing), three single 5 mg doses
# [5] = Person one (sublingual dosing), three single 5 mg doses
# [6] = Person two (sublingual dosing), three single 5 mg doses
# [7] = after three single 5 mg rosuvastatin doses
compound,measurement,setting,value
CC(C)c1nc(N(C)S(C)(=O)=O)nc(-c2ccc(F)cc2)c1/C=C/[C@@H](O)C[C@@H](O)CC(=O)O [rosuvastatin],% change in HDL,human subjects; [3],4.8%
same,% change in LDL,human subjects; [3],−26.54%
same,% change in Triglycerides,human subjects; [3],−7.91%
same,% change in total cholesterol,human subjects; [3],−16.8%
same,% change in HDL,human subjects; [4],5.9%
same,% change in LDL,human subjects; [4],−35.7%
same,% change in Triglycerides,human subjects; [4],20.0%
same,% change in total cholesterol,human subjects; [4],−20.3%
same,% change in HDL,human subjects; [5],−5.9%
same,% change in LDL,human subjects; [5],−21.05%
same,% change in Triglycerides,human subjects; [5],−37.5%
same,% change in total cholesterol,human subjects; [5],−17.5%
same,% change in total cholesterol,"human subjects; Person two (sublingual dosing), after 5 mg Crestor, 5 mg 1:1 tablet and 5 mg 7:1 tablet on consecutive days",−12.7%
same,% change in HDL,human subjects; [6],14.3%
same,% change in LDL,human subjects; [6],−22.9%
same,% change in Triglycerides,human subjects; [6],−16.6%
same,increase of HDL,human subjects; [7],5%
same,reduction of low density lipoproteins (LDL-C),human subjects; [7],27%
same,reduction of total cholesterol (TC),human subjects; [7],17%
same,Total rosuvastatin absorbed per minute,"[1]; positive control solution 0.4 mg/1.5 ml KBR, equivalent to 1:1 ODT",0.6 ng/mL
same,Total rosuvastatin absorbed per minute,"[1]; positive control solution 0.8 mg/1.5 ml KBR, equivalent to 7:1 ODT",0.3 ng/mL
CC(C)c1c(C(=O)Nc2ccccc2)c(-c2ccccc2)c(-c2ccc(F)cc2)n1CC[C@@H](O)C[C@@H](O)CC(=O)O [atorvastatin],Reductions in LDL-C,[2],37%
